In the NIST ThermoML archive (doi:10.1021/je3003578):
± gives the expanded uncertainty stated by the source.

Assay: xn = mol fraction of the nth substance listed
Settings: 101 kPa, Liquid

CCOCCCN [3-ethoxy-1-propanamine] + O
mass density [kg/m3]
Settings	283.15 K	288.15 K	293.15 K
x1 = 0.000108	999.685 ± 0.3	999.073 ± 0.31	998.176 ± 0.31
x1 = 0.000319	999.612 ± 0.3	998.997 ± 0.31	998.098 ± 0.31
x1 = 0.000625	999.489 ± 0.3	–	997.974 ± 0.31
x1 = 0.000707	999.462 ± 0.3	–	–
x1 = 0.000942	999.378 ± 0.3	998.755 ± 0.31	997.845 ± 0.31
x1 = 0.001046	999.335 ± 0.3	–	–
x1 = 0.001284	999.244 ± 0.31	998.623 ± 0.31	997.706 ± 0.31
x1 = 0.001947	999.006 ± 0.31	998.367 ± 0.31	997.459 ± 0.31
x1 = 0.002912	998.665 ± 0.31	998.003 ± 0.31	997.058 ± 0.31
x1 = 0.00392	998.32 ± 0.31	997.639 ± 0.31	996.673 ± 0.31
x1 = 0.005098	997.943 ± 0.31	997.245 ± 0.31	996.25 ± 0.31
x1 = 0.007456	997.213 ± 0.31	996.459 ± 0.31	–
x1 = 0.00981	996.579 ± 0.31	995.782 ± 0.31	994.681 ± 0.32
x1 = 0.0148	995.454 ± 0.31	994.495 ± 0.32	993.269 ± 0.32
x1 = 0.01956	994.585 ± 0.31	993.456 ± 0.32	992.092 ± 0.32
x1 = 0.02832	993.306 ± 0.32	991.899 ± 0.32	990.264 ± 0.32
x1 = 0.03914	992.137 ± 0.32	990.361 ± 0.32	988.357 ± 0.33
x1 = 0.05082	991.126 ± 0.32	988.889 ± 0.33	986.504 ± 0.33
x1 = 0.06674	989.564 ± 0.33	986.858 ± 0.33	983.968 ± 0.34
x1 = 0.09536	985.793 ± 0.34	982.292 ± 0.34	978.874 ± 0.35
x1 = 0.1209	981.126 ± 0.35	977.267 ± 0.36	973.326 ± 0.37
x1 = 0.1452	976.001 ± 0.36	971.617 ± 0.37	967.737 ± 0.38
x1 = 0.1844	967.807 ± 0.38	962.845 ± 0.39	958.517 ± 0.41
x1 = 0.2121	960.275 ± 0.4	955.87 ± 0.41	951.456 ± 0.42
x1 = 0.2438	954.343 ± 0.42	948.987 ± 0.43	–
x1 = 0.2923	944.589 ± 0.45	939.953 ± 0.46	–
x1 = 0.361	932.627 ± 0.48	926.801 ± 0.5	–
x1 = 0.4369	921.019 ± 0.53	916.153 ± 0.54	–
x1 = 0.4937	911.932 ± 0.56	907.295 ± 0.58	–
x1 = 0.5513	904.655 ± 0.6	900.039 ± 0.61	–
x1 = 0.6214	896.914 ± 0.63	892.186 ± 0.65	–
x1 = 0.6775	891.266 ± 0.66	886.402 ± 0.68	–
x1 = 0.6943	889.59 ± 0.67	884.998 ± 0.68	–
x1 = 0.7458	884.839 ± 0.69	880.089 ± 0.71	–
x1 = 0.7733	882.976 ± 0.71	–	–
x1 = 0.7947	880.664 ± 0.72	875.868 ± 0.73	–
x1 = 0.8276	878.228 ± 0.73	873.43 ± 0.75	–
x1 = 0.8488	876.201 ± 0.74	871.511 ± 0.76	–
x1 = 0.8744	874.608 ± 0.76	–	–
x1 = 0.8993	872.317 ± 0.77	867.858 ± 0.78	–
x1 = 0.9189	871.084 ± 0.78	866.306 ± 0.79	–
x1 = 0.9349	–	864.955 ± 0.8	–
x1 = 0.9411	869.403 ± 0.79	–	–
x1 = 0.9436	–	864.338 ± 0.8	–
x1 = 0.9486	868.869 ± 0.79	–	–
x1 = 0.9601	868.041 ± 0.8	863.267 ± 0.81	–
x1 = 0.9755	–	862.192 ± 0.82	–
x1 = 0.985	866.322 ± 0.81	861.525 ± 0.82	–
x1 = 1	865.36 ± 0.82	860.63 ± 0.83	–
